Measurements taken from the NIST ThermoML archive (doi:10.1016/j.tca.2010.04.025).
Numbers after ± are expanded uncertainties.

Legend:
[1] = 101 kPa, Liquid; for speed of sound: Linear variable-path acoustic interferometer; for mass density: Pycnometric method
[2] = xn = mol fraction of the nth substance listed; details: 101 kPa, Liquid; for speed of sound: Linear variable-path acoustic interferometer; for mass density: Pycnometric method

CCNc1ccccc1 [N-ethylaminobenzene]
[1]
Details | mass density [kg/m3] | speed of sound [m/s]
303.15 K | 951.9 ± 0.3 | 1497 ± 3
313.15 K | 944.3 ± 0.4 | 1462 ± 3
323.15 K | 935.9 ± 0.4 | 1431 ± 3

CCNc1ccccc1 [N-ethylaminobenzene] + C1CCOC1
[2]
Details | mass density, 303.15 K [kg/m3] | mass density, 313.15 K [kg/m3] | mass density, 323.15 K [kg/m3] | speed of sound, 303.15 K [m/s] | speed of sound, 313.15 K [m/s] | speed of sound, 323.15 K [m/s]
x2 = 0 | 951.9 ± 0.3 | 944.3 ± 0.4 | 935.9 ± 0.4 | 1497 ± 3 | 1462 ± 3 | 1431 ± 3
x2 = 0.0904 | 947.8 ± 0.3 | 940.8 ± 0.3 | 932.8 ± 0.4 | 1482 ± 3 | 1450 ± 3 | 1420 ± 3
x2 = 0.1892 | 943.8 ± 0.3 | 936.7 ± 0.3 | 929.1 ± 0.4 | 1469 ± 3 | 1435 ± 3 | 1404 ± 3
x2 = 0.2849 | 939.5 ± 0.3 | 932.4 ± 0.3 | 925.2 ± 0.4 | 1452 ± 3 | 1418 ± 3 | 1388 ± 3
x2 = 0.3819 | 934.5 ± 0.3 | 927.6 ± 0.3 | 920.6 ± 0.4 | 1433 ± 3 | 1399 ± 3 | 1367 ± 3
x2 = 0.4674 | 929.3 ± 0.3 | 922.6 ± 0.3 | 915.7 ± 0.4 | 1414 ± 3 | 1379 ± 3 | 1346 ± 3
x2 = 0.5758 | 921.9 ± 0.3 | 915.2 ± 0.3 | 908.1 ± 0.4 | 1387 ± 3 | 1351 ± 3 | 1317 ± 2
x2 = 0.6778 | 913.1 ± 0.3 | 906.4 ± 0.3 | 899.5 ± 0.4 | 1360 ± 3 | 1323 ± 2 | 1286 ± 2
x2 = 0.7876 | 902.1 ± 0.3 | 895.4 ± 0.3 | 887.7 ± 0.4 | 1326 ± 2 | 1287 ± 2 | 1250 ± 2
x2 = 0.8903 | 890.8 ± 0.3 | 882.8 ± 0.3 | 874.2 ± 0.3 | 1291 ± 2 | 1251 ± 2 | 1215 ± 2

CNc1ccccc1 [N-methylaniline]
[1]
Details | mass density [kg/m3] | speed of sound [m/s]
303.15 K | 978.2 ± 0.3 | 1548 ± 3
313.15 K | 969.8 ± 0.4 | 1512 ± 3
323.15 K | 961 ± 0.4 | 1477 ± 3

CNc1ccccc1 [N-methylaniline] + C1CCOC1
[2]
Details | mass density, 303.15 K [kg/m3] | mass density, 313.15 K [kg/m3] | mass density, 323.15 K [kg/m3] | speed of sound, 303.15 K [m/s] | speed of sound, 313.15 K [m/s] | speed of sound, 323.15 K [m/s]
x2 = 0 | 978.2 ± 0.3 | 969.8 ± 0.4 | 961 ± 0.4 | 1548 ± 3 | 1512 ± 3 | 1477 ± 3
x2 = 0.0831 | 973.1 ± 0.3 | 964.9 ± 0.4 | 956.6 ± 0.4 | 1528 ± 3 | 1493 ± 3 | 1459 ± 3
x2 = 0.1864 | 966 ± 0.3 | 958.3 ± 0.4 | 949.9 ± 0.4 | 1502 ± 3 | 1466 ± 3 | 1433 ± 3
x2 = 0.2813 | 959.1 ± 0.3 | 951.4 ± 0.4 | 943.4 ± 0.4 | 1478 ± 3 | 1442 ± 3 | 1407 ± 3
x2 = 0.3782 | 951.5 ± 0.3 | 944 ± 0.4 | 935.8 ± 0.4 | 1453 ± 3 | 1416 ± 3 | 1381 ± 3
x2 = 0.4714 | 943.5 ± 0.3 | 936 ± 0.4 | 927.4 ± 0.4 | 1428 ± 3 | 1390 ± 3 | 1354 ± 3
x2 = 0.5746 | 933.2 ± 0.3 | 926 ± 0.3 | 916.9 ± 0.4 | 1396 ± 3 | 1358 ± 3 | 1322 ± 3
x2 = 0.6956 | 919.4 ± 0.3 | 912.2 ± 0.3 | 902.6 ± 0.4 | 1357 ± 3 | 1318 ± 2 | 1282 ± 2
x2 = 0.7823 | 908.2 ± 0.3 | 900.8 ± 0.3 | 891.1 ± 0.4 | 1329 ± 3 | 1289 ± 2 | 1252 ± 2
x2 = 0.8882 | 893.4 ± 0.3 | 885.7 ± 0.3 | 875.8 ± 0.4 | 1293 ± 2 | 1252 ± 2 | 1213 ± 2
